US20100221763A1, “Specific Acceptors for Transferases to Saccharides and Method for Obtaining and Using Same” (Health Research, Inc, priority 2005, published 2010)

What was measured:
LNCaP α2,3(O)ST = experiment: Sialyltransferase assay with LNCaP cell extract; assay type: biochemical, human
Method: The prostate carcinoma cell line, LNCaP, was grown in RPMI 1640 supplemented with 10% fetal bovine serum and antibiotics (penicillin, streptomycin and amphotericin B) under conditions recommended by American Type Culture Collection (Manassas, Va.). The cells were homogenized with 0.1M Tris-Maleate pH6.3 containing 2% Triton X-100 using a Dounce all glass hand-operated homogenizer. The homogenate was centrifuged at 16,000 g for 1 h at 4° C. Protein concentration in supernatant was measured using the BCA assay (Pierce Biotech, Inc., Rockford, Ill.), with BSA as the standard. The supernatant was adjusted to 5 mg protein/ml by adding the necessary amount of extraction buffer and then stored frozen at −20° C. until use. 10 μl aliquot of this extract was used in assays run in duplicate.
(§1) The incubation mixtures run in duplicate contained 0.1M NaCacodylate buffer pH6.0, the acceptor (typically at 7.5 mM, or as indicated in some experiments), CMP-[9 ^3H] NeuAc (typically 0.2 μci; 20 μci/nmol or as indicated in some experiments) and the enzyme in a total volume of 20 μl. The control incubation mixtures contained everything except the acceptor. Incubation was carried out for 2 h at 37° C. The enzymatic transfer of [9-^3H] NeuAc to a typical acceptor was linear for 2 h and less than 30% CMP-[9-^3H] NeuAc was utilized. Chromatography, using either Dowex-1-Formate, Sep-Pak C18 or Biogel P2, was applied to separate radioactive product from un-reacted [9-^3H] NeuAc as described below.
(§2) The radioactive products from neutral allyl and methyl glycosides as well as non-glycosides were measured by fractionation on Dowex-1-Formate (Bio-Rad: AG-1X8; 200-400 mesh; format form) as follows: The incubation mixture was diluted with 1.0 ml water and passed through AG-1-formate column (1.0 ml bed volume in a Pasteur pipet which had been washed with 5 ml of 2M Formic acid followed by 10 ml water). The column was washed twice with 1.0 ml water after the entry of the sample and then eluted with 3.0 ml of 0.1M NaCl. The radioactivity present in water and 0.1M NaCl eluates were measured separately using 3a70 scintillation cocktail (Research Products International, Mount Prospect, Ill.) and a Beckman LS6500 scintillation counter. The CPM values were corrected by subtracting the blank CPM. Any radioactivity present in the water eluate (as noticed in the case of some methylglycosides) was added to the corresponding CPM value of 0.1M NaCl eluate. The radioactive products from sulfated and/or sialylated methylglycosides were also measured by the above procedure, only the elution of the AG-1-Formate column was continued further with 3.0 ml of 0.2M NaCl for achieving a complete elution of the radioactive product, a correction being made as before by subtracting the corresponding blank values.
(§3) The radioactive products from benzylglycosides and monosialylated benzylglycosides were measured by hydrophobic chromatography on Sep-Pak C18 cartridge (Waters, Milford, Mass.) and eluting the product with 3.0 ml methanol (30). The radioactivity was determined by liquid scintillation as above.
(§4) For such work, a Biogel P2 column (Fine Mesh; 1.0×116.0 cm) was used with 0.1M pyridine acetate pH5.4 as the eluent at room temperature. The effluent fractions were monitored for radioactivity and the first peak containing radioactivity was collected, lyophilized to dryness, dissolved in 200 μl of water and stored frozen at −20° C. for thin layer chromatography (TLC) and other experimentation.

[1] = target: T1, Rat recombinant α2,3(O)ST (Rattus norvegicus, UniProt Q11205); experiment: Sialyltransferase assay with cloned α2,3(O)ST; assay type: biochemical; conditions: for Km / Vmax: CMP-NeuAc 150 μM, Lineweaver-Burke plot
T1 construct: purchased Calbiochem
T1 sequence (Q11205 1-350): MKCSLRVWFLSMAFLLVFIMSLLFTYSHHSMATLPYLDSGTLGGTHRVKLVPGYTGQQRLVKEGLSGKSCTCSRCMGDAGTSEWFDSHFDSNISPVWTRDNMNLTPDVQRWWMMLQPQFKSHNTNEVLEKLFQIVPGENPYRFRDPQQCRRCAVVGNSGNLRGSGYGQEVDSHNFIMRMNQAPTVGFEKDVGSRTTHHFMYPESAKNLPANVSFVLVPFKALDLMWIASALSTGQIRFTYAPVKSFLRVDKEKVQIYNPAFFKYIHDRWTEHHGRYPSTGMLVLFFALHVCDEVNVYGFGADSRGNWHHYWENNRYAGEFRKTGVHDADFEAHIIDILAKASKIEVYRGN
Method: (§5) Rat recombinant α2,3(O)ST, α2,3(N)ST and α2,6(N)ST were purchased from Calbiochem and stored at either −20° C. or −70° C. as recommended by the supplier. […] 10 μl aliquots of the diluted enzymes were used in the assays run in duplicate.
as §1, §2, §3, §4

[2] = target: T2, Rat recombinant α2,3(N)ST (Rattus norvegicus, UniProt Q02734); experiment: Sialyltransferase assay with cloned α2,3(N)ST; assay type: biochemical; conditions: Table I; acceptor 7.5 mM; 100% = 29520 CPM (Galβ1,4GlcNAcβ-O—Al)
T2 construct: purchased Calbiochem
T2 sequence (Q02734 29-374 limits assumed): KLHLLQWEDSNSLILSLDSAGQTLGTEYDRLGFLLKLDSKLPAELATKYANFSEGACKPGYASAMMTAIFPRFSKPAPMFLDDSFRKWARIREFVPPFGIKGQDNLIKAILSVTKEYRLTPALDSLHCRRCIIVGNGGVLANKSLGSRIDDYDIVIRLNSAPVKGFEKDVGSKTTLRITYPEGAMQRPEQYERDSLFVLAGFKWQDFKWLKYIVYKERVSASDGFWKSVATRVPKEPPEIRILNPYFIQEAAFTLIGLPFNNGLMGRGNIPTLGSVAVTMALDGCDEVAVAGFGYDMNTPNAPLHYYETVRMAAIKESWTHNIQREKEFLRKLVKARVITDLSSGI
Method: as §5, §1, §2, §3, §4

[3] = Table II, acceptor 0.75 mM, relative to Galβ1,3GalNAcα-O-Bn
[4] = Table IV, compound 7.5 mM, relative to Galβ1,3(GlcNAcβ1,6)GalNAcα-O—Al
[5] = Table II, acceptor 7.5 mM, relative to Galβ1,3GalNAcα-O-Bn
[6] = Table I, acceptor 7.5 mM, 100% = 30930 CPM (3-O-MeGalβ1,4GlcNAcβ1,6(Galβ1,3)GalNAcα-O-Bn)
[7] = Table I, acceptor 7.5 mM, 100% = 40560 CPM (3-O-MeGalβ1,4GlcNAcβ1,6(Galβ1,3)GalNAcα-O-Bn)

| Sialyltransferase activity (%) Cloned α2,3(O)ST [1, 3] | Km [1] [µM] | Vmax [1] [pmol/h] | Compound | Sialyltransferase activity (%) LNCaP α2,3(O)ST (LNCaP α2,3(O)ST; [3]) [%] | other results |
| --- | --- | --- | --- | --- | --- |
| 55.9% |  |  | COC[C@H]1O[C@H](OCc2ccccc2)[C@H](NC(C)=O)[C@@H](O[C@@H]2O[C@H](CO)[C@H](O)[C@H](OC)[C@H]2O)[C@H]1O [3-O-MeGalβ1,3(6-O-Me)GalNAcα-O-Bn] | 1.1 |  |
|  |  |  | CO[C@H]1[C@@H](O)[C@@H](CO)O[C@@H](O[C@H]2[C@@H](O)[C@@H](CO[C@@H]3O[C@H](CO)[C@@H](O)[C@H](O)[C@H]3NC(C)=O)O[C@H](OCc3ccccc3)[C@@H]2NC(C)=O)[C@@H]1O [3-O-MeGalβ1,3(GlcNAcβ1,6)GalNAcα-O-Bn, 3-O-MeGalβ1,3(GlcNAcβ1,6) GalNAcα-O-Bn] |  | Sialyltransferase activity (%) Cloned α2,3(O)ST [1, 4]: 24.7% |
| 70.4% |  |  | CO[C@H]1[C@@H](O)[C@@H](CO)O[C@@H](O[C@H]2[C@@H](O)[C@@H](CO)O[C@H](OCc3ccccc3)[C@@H]2NC(C)=O)[C@@H]1O [3-O-MeGalβ1,3GalNAcα-O-Bn] | 2.6 | Sialyltransferase activity (%) LNCaP α2,3(O)ST (LNCaP α2,3(O)ST; [5]): 15.5%; Sialyltransferase activity (%) Cloned α2,3(O)ST [1, 5]: 101.8% |
|  | 2000 | 624 | CO[C@H]1O[C@H](CO)[C@H](O)[C@H](O[C@@H]2O[C@H](CO)[C@H](O)[C@H](O[C@@H]3O[C@H](C)[C@H](O)[C@H](OS(=O)(=O)O)[C@H]3O)[C@H]2NC(C)=O)[C@H]1O [3-O-SulfoD-Fucβ1,3GalNAcβ1,3Galα-O-Me] |  |  |
|  |  |  | CC(=O)NC1C(OCC2OC(OCc3ccccc3)C(NC(C)=O)C(OC3OC(CO)C(O)C(OS(=O)(=O)O)C3O)C2O)OC(CO)C(O)C1O (centres unmarked) [3-O-SulfoGalβ1,3(GlcNAcβ1,6)GalNAcα-O-Bn, 3-O-SulfoGalβ1,3(GlcNAcβ1,6) GalNAcα-O-Bn] |  | Sialyltransferase activity (%) Cloned α2,3(O)ST [1, 4]: 54.7% |
|  | 1250 | 416 | COC1OC(CO)C(O)C(OC2OC(CO)C(O)C(OC3OC(CO)C(O)C(OS(=O)(=O)O)C3O)C2NC(C)=O)C1O (centres unmarked) [3-O-SulfoGalβ1,3GalNAcβ1,3Galα-O-Me] |  |  |
| 104.6^10% | 250 | 1442 | CC(=O)N[C@H]1[C@@H](OCc2ccccc2)O[C@H](CO)[C@H](O)[C@@H]1O[C@@H]1O[C@H](CO)[C@H](F)[C@H](O)[C@H]1O [4-F-Galβ1,3GalNAcα-O-Bn] | 44.8 | Sialyltransferase activity (%) LNCaP α2,3(O)ST (LNCaP α2,3(O)ST; [5]): 105.1%; Sialyltransferase activity (%) Cloned α2,3(O)ST [1, 5]: 102.3^10% |
| 104.6^9% | 130 | 1250 | CO[C@@H]1[C@H](O)[C@@H](O)[C@H](O[C@H]2[C@@H](O)[C@@H](CO)O[C@H](OCc3ccccc3)[C@@H]2NC(C)=O)O[C@@H]1CO [4-O-MeGalβ1,3GalNAcα-O-Bn] | 141.5 | Sialyltransferase activity (%) LNCaP α2,3(O)ST (LNCaP α2,3(O)ST; [5]): 188.7%; Sialyltransferase activity (%) Cloned α2,3(O)ST [1, 5]: 105.0^9% |
|  | 1820 | 197 | CC(=O)N[C@H]1[C@H](OC[C@H]2O[C@H](OCc3ccccc3)[C@H](NC(C)=O)[C@@H](O[C@@H]3O[C@H](CO)[C@H](O)[C@H](O)[C@H]3O[C@@H]3O[C@@H](C)[C@@H](O)[C@@H](O)[C@@H]3O)[C@H]2O)O[C@H](CO)[C@@H](O)[C@@H]1O [Fucα1,2Galβ1,3(GlcNAcβ1,6)GalNAcα-O-Bn] |  | Sialyltransferase activity (%) Cloned α2,3(O)ST [1, 4]: 45.4% |
|  |  |  | CO[C@H]1O[C@H](CO[C@@H]2O[C@H](CO)[C@@H](O[C@@H]3O[C@H](CO)[C@H](O)[C@H](O)[C@H]3NC(C)=O)[C@H](O[C@@H]3O[C@@H](C)[C@@H](O)[C@@H](O)[C@@H]3O)[C@H]2NC(C)=O)[C@H](O)[C@H](O[C@@H]2O[C@H](CO)[C@H](O)[C@H](O)[C@H]2O)[C@H]1NC(C)=O [GalNAcβ1,4(Fucα1,3)GlcNAcβ1,6(Galβ1,3)GalNAcα-O-Me] |  | Sialyltransferase activity (%) LNCaP α2,3(O)ST (LNCaP α2,3(O)ST; [6]): 21.1%; Sialyltransferase activity (%) Cloned α2,3(O)ST [1, 7]: 134.9% |
| 107.6^11% |  |  | COC[C@H]1O[C@H](OCc2ccccc2)[C@H](NC(C)=O)[C@@H](O[C@@H]2O[C@H](CO)[C@H](O)[C@H](O)[C@H]2O)[C@H]1O [Galβ1,3(6-O-Me)GalNAcα-O-Bn] | 119.2 | Sialyltransferase activity (%) LNCaP α2,3(O)ST (LNCaP α2,3(O)ST; [5]): 189.4%; Sialyltransferase activity (%) Cloned α2,3(O)ST [1, 5]: 107.3^11% |
|  |  |  | CC(=O)N[C@H]1[C@H](OC[C@H]2O[C@H](OCc3ccccc3)[C@H](NC(C)=O)[C@@H](O[C@@H]3O[C@H](CO)[C@H](O)[C@H](O[C@@]4(C(=O)O)C[C@H](O)[C@@H](NC(C)=O)[C@H]([C@H](O)[C@H](O)CO)O4)[C@H]3O)[C@H]2O)O[C@H](CO)[C@@H](O[C@@H]2O[C@H](CO)[C@H](O)[C@H](O)[C@H]2O)[C@@H]1O[C@@H]1O[C@@H](C)[C@@H](O)[C@@H](O)[C@@H]1O [Galβ1,4(Fucα1,3)GlcNAcβ1,6(NeuAcα2,3Galβ1,3)GalNAcα-O-Bn] |  | Sialyltransferase activity (%) Cloned α2,3(N)ST [2]: 27.1% |
|  |  |  | CC(=O)NC1C(OC2C(O)C(CO)OC(OC3C(CO)OC(OCc4ccccc4)C(NC(C)=O)C3O)C2O)OC(CO)C(OC2OC(CO)C(O)C(O)C2O)C1O (centres unmarked) [Galβ1,4GlcNAcβ1,3Galβ1,4GlcNAcβ-O-Bn] |  | Sialyltransferase activity (%) Cloned α2,3(O)ST [1, 7]: 8.7% |
|  |  |  | COC1OC(COC2OC(COS(=O)(=O)O)C(OC3OC(CO)C(O)C(OC4(C(=O)O)CC(O)C(NC(C)=O)C(C(O)C(O)CO)O4)C3O)C(OC3OC(C)C(O)C(O)C3O)C2NC(C)=O)C(O)C(OC2OC(CO)C(O)C(O)C2O)C1NC(C)=O (centres unmarked) [NeuAcα2,3Galβ1,4(6-O-Sulfo)(Fucα1,3)GlcNAcβ1,6(Galβ1,3)GalNAcα-O-Me] |  | Sialyltransferase activity (%) Cloned α2,3(O)ST [1, 7]: 7.4% |
|  |  |  | COC1OC(COC2OC(CO)C(OC3OC(CO)C(O)C(OC4(C(=O)O)CC(O)C(NC(C)=O)C(C(O)C(O)CO)O4)C3O)C(O)C2NC(C)=O)C(O)C(OC2OC(CO)C(O)C(O)C2O)C1NC(C)=O (centres unmarked) [NeuAcα2,3Galβ1,4GlcNAcβ1,6(Galβ1,3)GalNAcα-O-Me] |  | Sialyltransferase activity (%) LNCaP α2,3(O)ST (LNCaP α2,3(O)ST; [6]): 5.1%; Sialyltransferase activity (%) Cloned α2,3(O)ST [1, 7]: 35.2% |
